The values below come from patent publication US20250090640A1, “METHOD OF IMPROVING THE VIABILITY OF A DENTAL IMPLANT” (priority 2023, published 2025).

One data set deals with OVX rats. Set-up: species or system Sprague-Dawley rats. The conditions noted are these: rat, in vivo. The text has this: In this study, Sprague-Dawley rats were divided into three groups (Table 1) to study the impact of abaloparatide treatment on implant viability in rats in a model that mimics osteoporosis by ovariectomy (OVX).
At four months, rats in the OVX groups were ovariectomized, and bone depletion was allowed to occur for two months. At this point, daily injections of abaloparatide (Abalo) or vehicle (VEH) began 42 days prior to implant surgery and were continued out to 21 days past implant surgery.
As shown in FIGS. 2A-2C, 3A-3F, and 4A-4C, altered bone metabolism in the OVX rats and residual ridge defects complicated implant placement. […] However, abaloparatide did increase bone mass density in the femoral shaft and intact maxillac on the non-extraction side of the jaw (FIGS. 4A and 4B, respectively). With continued reference to FIGS. 4A and 4B, there was a 150% increase in mean BMD in OVX rats treated with ABL versus VEH.

Data set [1] has as its system patients with severe, chronic periodontal disease. The conditions noted are these: 6-week course of daily injections (20 mcg) from 3 days prior to surgery, with oral calcium and vitamin D; cited from earlier work.

`CC[C@H](C)[C@H](NC(=O)[C@H](CO)NC(=O)[C@H](CCCCN)NC(=O)CNC(=O)[C@H](CCCCN)NC(=O)[C@H](CC(=O)O)NC(=O)[C@H](Cc1cnc[nH]1)NC(=O)[C@H](CC(C)C)NC(=O)[C@H](CC(C)C)NC(=O)[C@H](CCC(N)=O)NC(=O)[C@H](Cc1cnc[nH]1)NC(=O)[C@H](CCC(=O)O)NC(=O)[C@H](CO)NC(=O)[C@@H](NC(=O)[C@H](C)N)C(C)C)C(=O)N[C@@H](CCC(N)=O)C(=O)N[C@@H](CC(=O)O)C(=O)N[C@@H](CC(C)C)C(=O)N[C@@H](CCCNC(=N)N)C(=O)N[C@@H](CCCNC(=N)N)C(=O)N[C@@H](CCCNC(=N)N)C(=O)N[C@@H](CCC(=O)O)C(=O)N[C@@H](CC(C)C)C(=O)N[C@@H](CC(C)C)C(=O)N[C@@H](CCC(=O)O)C(=O)N[C@@H](CCCCN)C(=O)N[C@@H](CC(C)C)C(=O)N[C@@H](CC(C)C)C(=O)NC(C)(C)C(=O)N[C@@H](CCCCN)C(=O)N[C@@H](CC(C)C)C(=O)N[C@@H](Cc1cnc[nH]1)C(=O)N[C@H](C(=O)N[C@@H](C)C(N)=O)[C@@H](C)O` [abaloparatide, [Glu^22,25, Leu^23,28,31, Aib^29, Lys^26,30]hPTHrP(1-34)NH2]: in the data set with OVX rats, the “relationship of unexpected healing complications after tooth extraction to treatment” value is reported as “no relationship”.

For the compound `CC[C@H](C)[C@H](NC(=O)[C@H](CCC(=O)O)NC(=O)[C@H](CO)NC(=O)[C@@H](NC(=O)[C@@H](N)CO)C(C)C)C(=O)N[C@@H](CCC(N)=O)C(=O)N[C@@H](CC(C)C)C(=O)N[C@@H](CCSC)C(=O)N[C@@H](Cc1cnc[nH]1)C(=O)N[C@@H](CC(N)=O)C(=O)N[C@@H](CC(C)C)C(=O)NCC(=O)N[C@@H](CCCCN)C(=O)N[C@@H](Cc1cnc[nH]1)C(=O)N[C@@H](CC(C)C)C(=O)N[C@@H](CC(N)=O)C(=O)N[C@@H](CO)C(=O)N[C@@H](CCSC)C(=O)N[C@@H](CCC(=O)O)C(=O)N[C@@H](CCCN=C(N)N)C(=O)N[C@H](C(=O)N[C@@H](CCC(=O)O)C(=O)N[C@@H](Cc1c[nH]c2ccccc12)C(=O)N[C@@H](CC(C)C)C(=O)N[C@@H](CCCN=C(N)N)C(=O)N[C@@H](CCCCN)C(=O)N[C@@H](CCCCN)C(=O)N[C@@H](CC(C)C)C(=O)N[C@@H](CCC(N)=O)C(=O)N[C@@H](CC(=O)O)C(=O)N[C@H](C(=O)N[C@@H](Cc1cnc[nH]1)C(=O)N[C@@H](CC(N)=O)C(=O)N[C@@H](Cc1ccccc1)C(=O)O)C(C)C)C(C)C` [Teriparatide], the “clinical outcomes relative to placebo during the year following periodontal surgery” value in data set [1] is “improved clinical outcomes”.
